Data from publication PMC12067145 (ACS Medicinal Chemistry Letters, 2025).
pIC50: −log10 of the molar value. Where two headings read alike, the source gives them in different places. Each block holds one compound with its values, some of them ahead of it.

How the values were obtained:
ChromatoLogD = format: physicochemical
Text: 1 TREK-1 Inhibitory Activity and Lipophilicity of Analogues 10 | column: ChromatoLogD

human TREK-1 = molecular target: T1, human TREK-1 (Homo sapiens, UniProt O95069); test: TREK-1 thallium (Tl+) flux assay; conditions: for pIC50: read-out: h TREK-1 Tl+ IC50, thallium flux, hTREK-1/CHO
T1 sequence (O95069 1-426): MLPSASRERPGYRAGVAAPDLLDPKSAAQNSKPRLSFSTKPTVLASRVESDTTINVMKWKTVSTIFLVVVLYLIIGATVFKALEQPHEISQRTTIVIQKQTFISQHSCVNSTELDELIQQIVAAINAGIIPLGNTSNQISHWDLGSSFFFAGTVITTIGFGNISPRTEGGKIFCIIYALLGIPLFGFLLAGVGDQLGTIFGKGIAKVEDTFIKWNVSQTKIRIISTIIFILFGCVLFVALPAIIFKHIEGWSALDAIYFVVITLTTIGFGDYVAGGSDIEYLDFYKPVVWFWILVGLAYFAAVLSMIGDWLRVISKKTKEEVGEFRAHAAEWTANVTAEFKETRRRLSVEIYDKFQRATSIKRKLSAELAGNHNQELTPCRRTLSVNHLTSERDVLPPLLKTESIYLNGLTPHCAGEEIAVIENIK

[1] = Liver microsome intrinsic clearance (human); format: in vitro ADME; conditions: for CLint scaled at 1 µM: pH 7.4, human liver microsomes, read-out: LMS CLINT human
Description: (§1) After a 5 min preincubation, the reaction was initiated by the addition of NADPH (1 mM). At selected time intervals between 0 ~ 60 min (e.g. 0, 3, 7, 15, 25, 45 and/or 60 min), aliquots were taken and subsequently placed into a 96-well plate containing cold acetonitrile with an internal standard (50 ng/mL carbamazepine). Plates were then centrifuged at 3000 rcf (4 °C) for 10 min, and the supernatant was transferred to a separate 96-well plate and diluted 1:1 with water for LC/MS/MS analysis. The in vitro half-life (T 1/2, min, Eq. 1), intrinsic clearance (CLint, mL/min/kg, Eq. 2), and subsequent predicted hepatic clearance (CLhep, mL/min/kg, Eq. 3) were determined employing the following equations: […]
(§2) where k represents the slope from linear regression analysis of the natural log percent remaining of a test compound as a function of incubation time […]
(§3) (2) CLint = in vitroT1/2 x mg microsomes x gram liver x kg body wt ascale-up factors: of 20 (human) or 45 (rat) or 87.5 (mouse) […]
(§4) where Qh (hepatic blood flow, mL/min/kg) is 21 (human) or 70 (rat) or 90 (mouse).
(§5) LC/MS/MS Bioanalysis of Samples from Plasma Protein Binding and Intrinsic Clearance […]
(§6) Samples were analyzed on a Thermo Electron TSQ Quantum Ultra triple quad mass spectrometer (San Jose, CA) via electrospray ionization (ESI) with two Themo Electron Accella pumps (San Jose, CA), and a Leap Technologies CTC PAL autosampler (Carrboro, NC). Analytes were separated by gradient elution on a dual column system with two Thermo Hypersil Gold (2.1 x 30 mm, 1.9 µm) columns (San Jose, CA) thermostated at 40 °C. HPLC mobile phase A was 0.1% formic acid in water and mobile phase B was 0.1% formic acid in acetonitrile. The gradient started […]
(§7) for 0.2 min; returned to 10% B in 0.1 min. The total run time was 1.3 min and the HPLC flow rate was 0.8 mL/min. While pump 1 ran the gradient method, pump 2 equilibrated the alternate column isocratically at 10% B. Compound optimization, data collection, and processing were performed using Thermo Electron's QuickQuan software (v2.3) and Xcalibur (v2.0.7 SP1). […]

[2] = Rat IV:PBL PK cassette study / in vivo rat clearance; conditions: male, Sprague-Dawley, in vivo rat plasma clearance, read-out: rat CLp; for clearance: intravenous; for clearance at 24 h: iv, 0.2 mg/kg
[3] = Liver microsome intrinsic clearance (mouse); format: in vitro ADME; conditions: pH 7.4; mouse liver microsomes; read-out: LMS CLINT mouse
Description: as §1, §2, §3, §4, §5, §6, §7

[4] = Plasma protein binding (human); format: in vitro ADME; conditions: pH 7.4, read-out: PPB human (converted)
Description: (§8) 0.3% DMSO - ΔRatio of 1 µM control compound)x100
(§9) In vitro Plasma protein binding and Brain homogenate binding: Determination of fraction unbound (f u) in plasma was conducted in vitro via equilibrium dialysis using HTDialysis (HTD) membrane plates. The top half of the plate was filled with 100 uL of Dubelco’s Phosphate Buffered Saline, pH 7.4 (DPBS). Compounds were diluted into plasma from each species (5 µM final concentration), which was aliquoted in triplicate to the ‘bottom half’ of the prepared HTD plate wells. The HTD plate was sealed and incubated for 6 hours at 37 °C. Following incubation, each well (both top and bottom halves) were transferred (20 µL) to the corresponding wells of a 96-shallow-well (V-bottom) plate. The daughter plates were then matrix-matched (DPBS side wells received equal volume of plasma, and plasma side wells received equal volume of DPBS), and extraction solution (120 µL; acetonitrile containing 50 nM carbamazepine as IS) was added to all wells of both daughter plates to precipitate protein and extract test article. The plates were then sealed and centrifuged (3500 rcf) for 10 minutes at ambient temperature. Supernatant (60 µL) from each well of the daughter plates was then transferred to the corresponding wells of new daughter plates (96-shallow-well, V bottom) containing water (Milli-Q, 60 µL/well), and the plates were sealed in preparation for LC-MS/MS analysis (see LC-MS/MS analysis method below).
(§10) The unbound fraction (f u) was calculated following the equation below, and mean values for each species were calculated from 3 replicates. A similar approach was used to determine the degree of brain homogenate binding, which employed the same methodology and procedure with the following modifications: 1) a final compound concentration of 1 μM was used, 2) naïve rat brains were homogenized in DPBS (1:3 composition of brain: DPBS, w/w) using a Mini-Bead Beater™ machine in order to obtain brain homogenate, which was then treated in the same manner as the plasma samples in the previously described plasma protein binding assay. Fraction unbound for both plasma and brain samples was determined using Equation 4.

[5] = Plasma protein binding (mouse); format: in vitro ADME; conditions: pH 7.4, read-out: PPB mouse (converted)
Description: as §8, §9, §10

[6] = Liver microsome intrinsic clearance (rat); format: in vitro ADME; conditions: pH 7.4; rat liver microsomes; read-out: LMS CLINT rat
Description: as §1, §2, §3, §4, §5, §6, §7

Aqueous solubility = format: physicochemical; conditions: cyclopropyl amides versus N-Boc series
[7] = Plasma protein binding (species not stated); format: in vitro ADME; conditions: pH 7.4
Description: as §8
as §9, with “Supernatant (60 µL) from each well of the daughter plates was then transferred to the corresponding wells of new daughter plates (96-shallow-well, V bottom) containing water (Milli-Q, 60 µL/well), and the plates were sealed in preparation for LC-MS/MS analysis (see LC-MS/MS analysis method below).” left out
The unbound fraction (f u) was calculated following the equation below, and mean values for each species were calculated from 3 replicates. […] Fraction unbound for both plasma and brain samples was determined using Equation 4.

TREK-1 = conditions: cited from earlier work

chromatographic logD (ChromatoLogD): 4.9
increase in TREK-1 potency (human TREK-1; versus HTS hit 5): ~17 fold
SMILES: Cc1cc(OCc2ccccc2)ccc1NC(=O)c1cc(NC(=O)OC(C)(C)C)ccc1Cl [Compound 6]

chromatographic logD (ChromatoLogD): 4.4
CLint scaled at 1 µM [1]: 137 mL/min/kg
pIC50 (human TREK-1): 6.25
SMILES: Cc1cc(OCc2ccccc2)cnc1NC(=O)c1cc(NC(=O)OC(C)(C)C)ccc1Cl [Compound 10a]

chromatographic logD (ChromatoLogD): 5
SMILES: Cc1nc(OCc2ccccc2)ccc1NC(=O)c1cc(NC(=O)OC(C)(C)C)ccc1Cl [Compound 10b]

chromatographic logD (ChromatoLogD): 4.8
clearance [2]: 135 mL/min/kg
SMILES: Cc1nc(OCc2ccccc2)cnc1NC(=O)c1cc(NC(=O)OC(C)(C)C)ccc1Cl [Compound 10c]

CLint scaled at 1 µM [1]: 13 mL/min/kg
lowering of human microsomal intrinsic clearance ([1]; versus 10a): 10 fold
CLint scaled at 1 µM [3]: 34 mL/min/kg
fraction unbound at 6 h, 5 µM [4]: 0.005
fraction unbound at 6 h, 5 µM [5]: 0.013
increase in TREK-1 potency (human TREK-1; versus 10a): ~4 fold
SMILES: Cc1cc(C#Cc2ccccc2)cnc1NC(=O)c1cc(NC(=O)OC(C)(C)C)ccc1Cl [Compound 11]

clearance [2]: 25 mL/min/kg
SMILES: Cc1nc(C#Cc2ccccc2)cnc1NC(=O)c1cc(NC(=O)OC(C)(C)C)ccc1Cl [Compound 12]

CLint scaled at 1 µM [1]: 10 mL/min/kg
CLint scaled at 1 µM [3]: 6 mL/min/kg
fraction unbound at 6 h, 5 µM [4]: 0.002
fraction unbound at 6 h, 5 µM [5]: 0.011
SMILES: CC(C)(C)OC(=O)Nc1ccc(Cl)c(C(=O)Nc2ncc(C#Cc3ccccc3)cc2F)c1 [Compound 13a]

fraction unbound at 6 h, 5 µM [5]: < 0.001
SMILES: CC(C)(C)OC(=O)Nc1ccc(Cl)c(C(=O)Nc2ncc(C#Cc3ccccc3)cc2Cl)c1 [Compound 13b]

CLint scaled at 1 µM [1]: 13 mL/min/kg
CLint scaled at 1 µM [3]: 13 mL/min/kg
pIC50 (human TREK-1): 6.27
SMILES: Cc1cc(C#Cc2ccccc2F)cnc1NC(=O)c1cc(NC(=O)OC(C)(C)C)ccc1Cl [Compound 14a]

CLint scaled at 1 µM [1]: 20 mL/min/kg
CLint scaled at 1 µM [3]: 40 mL/min/kg
fraction unbound at 6 h, 5 µM [4]: < 0.001
fraction unbound at 6 h, 5 µM [5]: < 0.001
SMILES: Cc1cc(C#Cc2cccc(F)c2)cnc1NC(=O)c1cc(NC(=O)OC(C)(C)C)ccc1Cl [Compound 14b]

CLint scaled at 1 µM [1]: 27 mL/min/kg
CLint scaled at 1 µM [3]: 78 mL/min/kg
SMILES: Cc1cc(C#Cc2ccncc2)cnc1NC(=O)c1cc(NC(=O)OC(C)(C)C)ccc1Cl [Compound 14d]

CLint scaled at 1 µM [1]: 13 mL/min/kg
CLint scaled at 1 µM [3]: 69 mL/min/kg
CLint scaled at 1 µM [6]: 25 mL/min/kg
aqueous solubility (in words) (Aqueous solubility): no improvement on aqueous solubility
clearance at 24 h [2]: 12 mL/min/kg
fraction unbound at 6 h, 5 µM [7]: < 0.003
pIC50 (human TREK-1): 6.74
SMILES: Cc1cc(C#Cc2ccccc2)cnc1NC(=O)c1cc(NC(=O)C2CC2)ccc1Cl [Compound 15a]

CLint scaled at 1 µM [1]: 10 mL/min/kg
CLint scaled at 1 µM [3]: 50 mL/min/kg
CLint scaled at 1 µM [6]: 10 mL/min/kg
aqueous solubility (in words) (Aqueous solubility): no improvement on aqueous solubility
clearance at 24 h [2]: 1.4 mL/min/kg
fraction unbound at 6 h, 5 µM [7]: < 0.003
SMILES: Cc1cc(C#Cc2ccc(F)cc2)cnc1NC(=O)c1cc(NC(=O)C2CC2)ccc1Cl [Compound 15b]

SMILES: Cc1ccccc1CC1OC(=O)c2cc(C3CCNCC3)ccc21 (centres unmarked) [Cpd8]
pIC50 (TREK-1): 6.09

SMILES: O=C(CSc1ccc2ccccc2n1)NNC(=O)c1ccc(Cl)cc1 [TKIM]
pIC50 (TREK-1; state-dependent TREK-1 inhibitor): 5.53
